Values quoted from earlier work, collected in paper PMC5618191 (Toxins, 2017).

Parameters: method as in PMID 26892719
Conditions: after three days of treatment; cited from earlier work

Q: For `CC(C)[C@H]1C(=O)O[C@H](C(C)C)C(=O)N(C)[C@@H](C(C)C)C(=O)O[C@H](C(C)C)C(=O)N(C)[C@@H](C(C)C)C(=O)O[C@H](C(C)C)C(=O)N1C` [ENN B, enniatin B], which Metabolites in mice is on record?
A: three phase I metabolites
